Here are results for ten molecules from patent publication US11427548B2 (Arvinas Operations, Inc., priority 2015, dated 2022).

Like-named read-outs stand apart in the source and are kept apart here.

This assay has as its target T1, Androgen Receptor (Homo sapiens, UniProt P10275).
T1 construct: endogenous in cells; host or cells: VCaP cells
T1 sequence (P10275 1-920): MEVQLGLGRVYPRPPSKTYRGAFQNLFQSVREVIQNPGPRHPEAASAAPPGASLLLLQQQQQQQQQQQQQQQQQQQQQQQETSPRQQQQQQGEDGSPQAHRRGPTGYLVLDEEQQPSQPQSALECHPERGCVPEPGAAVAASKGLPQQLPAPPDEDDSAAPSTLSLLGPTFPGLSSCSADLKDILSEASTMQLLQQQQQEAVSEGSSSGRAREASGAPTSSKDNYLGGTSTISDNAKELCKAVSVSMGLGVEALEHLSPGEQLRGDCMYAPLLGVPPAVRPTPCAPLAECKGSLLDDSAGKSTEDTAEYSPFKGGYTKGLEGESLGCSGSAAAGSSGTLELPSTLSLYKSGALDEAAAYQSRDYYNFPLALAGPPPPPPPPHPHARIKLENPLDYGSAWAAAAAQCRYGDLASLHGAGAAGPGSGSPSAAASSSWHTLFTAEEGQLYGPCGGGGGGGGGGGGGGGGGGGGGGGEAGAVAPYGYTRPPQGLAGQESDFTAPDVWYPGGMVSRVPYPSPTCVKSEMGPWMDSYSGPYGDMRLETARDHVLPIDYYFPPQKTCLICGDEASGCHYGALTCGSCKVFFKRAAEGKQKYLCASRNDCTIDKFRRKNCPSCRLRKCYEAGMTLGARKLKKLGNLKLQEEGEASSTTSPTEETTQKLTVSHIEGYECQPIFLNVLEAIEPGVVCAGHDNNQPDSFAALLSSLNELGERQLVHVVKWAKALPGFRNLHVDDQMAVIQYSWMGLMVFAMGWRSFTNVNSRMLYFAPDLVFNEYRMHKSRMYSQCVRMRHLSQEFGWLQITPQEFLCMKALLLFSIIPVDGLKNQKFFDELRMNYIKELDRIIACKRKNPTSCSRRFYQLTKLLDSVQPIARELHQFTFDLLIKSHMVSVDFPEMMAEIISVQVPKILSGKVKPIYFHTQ
Briefly: Androgen Receptor ELISA assay (PathScan AR ELISA) in VCaP cells: AR degradation, Dmax and DC50. It is filed as cell-based. Summed up:
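After 24 h exposure of VCaP cells (charcoal-stripped serum, 0.1 nM R1881 agonist, 0.1% DMSO) to seven half-log compound concentrations, residual AR in lysates was measured by PathScan ELISA (TMB absorbance, 450 nm). Cells were plated at 30,000/well and grown at least 3 days beforehand.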
In general terms: ELISA stands for enzyme-linked immunosorbent assay.

Setting [1] is: read-out: VCaP DC50; concentration that caused 50% Androgen Receptor degradation, VCaP cells (Table 32).

Take `Cc1ncsc1-c1ccc(CNC(=O)[C@@H]2C[C@@H](O)CN2C(=O)[C@@H](NC(=O)COCCCCOc2ccc(-c3ccc(N4C(=S)N(c5ccc(C#N)c(Cl)c5)C(=O)C4(C)C)cc3)cc2)C(C)(C)C)cc1` [Example 112, (2S,4R)-1-[(2S)-2-{2-[4-(4-{4-[3-(3-chloro-4-cyanophenyl)-5,5-dimethyl-4-oxo-2-sulfanylideneimidazolidin-1-yl]phenyl}phen-oxy)butoxy]acetamido}-3,3-dimethylbutanoyl]-4-hydroxy-N-{[4-(4-methyl-1,3-thiazol-5-yl)phenyl]methyl}pyrrolidine-2-carboxamide]: the Dmax (commonly the greatest extent of degradation seen) (VCaP, read-out: VCaP Dmax (%)) was > 71%. The DC50 (as a rule, the midpoint of the concentration-degradation curve) under setting [1] is < 50 nM.
Consider `Cc1ncsc1-c1ccc(CNC(=O)[C@@H]2C[C@@H](O)CN2C(=O)[C@@H](NC(=O)COc2cccc(Oc3ccc(-c4ccc(N5C(=S)N(c6ccc(C#N)c(C(F)(F)F)c6)C(=O)C5(C)C)cc4)cc3)c2)C(C)(C)C)cc1` [Example 114, (2S,4R)-1-[(2S)-2-(2-{3-[4-(4-{3-[4-cyano-3-(trifluoromethyl)phenyl]-5,5-dimethyl-4-oxo-2-sulfanylideneimidazolidin-1-yl}phenyl)phen-oxy]phenoxy}acetamido)-3,3-dimethylbutanoyl]-4-hydroxy-N-{[4-(4-methyl-1,3-thiazol-5-yl)phenyl]methyl}pyrrolidine-2-carboxamide], for which the Dmax (VCaP, read-out: VCaP Dmax (%)) is 51 to 70%. Under setting [1], the 50% degradation concentration (DC50) is < 50 nM.
`COc1cc(N2C(=O)C(C)(C)N(c3ccc(-c4ccc(OCCCCOCC(=O)N[C@H](C(=O)N5C[C@H](O)C[C@H]5C(=O)NCc5ccc(-c6ocnc6C)cc5)C(C)(C)C)cc4)cc3)C2=S)ccc1C#N` [Example 115, (2S,4R)-1-[(2S)-2-{2-[4-(4-{4-[3-(4-cyano-3-methoxyphenyl)-5,5-dimethyl-4-oxo-2-sulfanylideneimidazolidin-1-yl]phenyl}phenoxy)butoxy]acetamido}-3,3-dimethylbutanoyl]-4-hydroxy-N-{[4-(4-methyl-1,3-oxazol-5-yl)phenyl]methyl}pyrrolidine-2-carboxamide]: the greatest degradation seen (Dmax) (VCaP, highest percentage of Androgen Receptor degradation observed, VCaP cells (Table 32); read-out: VCaP Dmax (%)) was > 71%. Also, the DC50 (concentration that caused 50% Androgen Receptor degradation, VCaP cells (Table 32); read-out: VCaP DC50) is < 50 nM.
For `Cc1ncoc1-c1ccc(CNC(=O)[C@@H]2C[C@@H](O)CN2C(=O)[C@@H](NC(=O)COCCCCOc2ccc(-c3ccc(N4C(=S)N(c5ccc(C#N)c(C(F)(F)F)c5)C(=O)C4(C)C)c(F)c3)cc2)C(C)(C)C)cc1` [Example 116, (2S,4R)-1-[(2S)-2-(2-{4-[4-(4-{3-[4-cyano-3-(trifluoromethyl)phenyl]-5,5-dimethyl-4-oxo-2-sulfanylideneimidazolidin-1-yl}-3-fluorophenyl)phen-oxy]butoxy}acetamido)-3,3-dimethylbutanoyl]-4-hydroxy-N-{[4-(4-methyl-1,3-oxazol-5-yl)phenyl]methyl}pyrrolidine-2-carboxamide], the Dmax (VCaP, read-out: VCaP Dmax (%)) was > 71%. Besides, the half-maximal degradation concentration (DC50) under setting [1] was < 50 nM.
As for `CC(C)(C)[C@H](NC(=O)COCCCCOc1ccc(-c2ccc(N3C(=S)N(c4ccc(C#N)c(C(F)(F)F)c4)C(=O)C3(C)C)c(F)c2)cc1)C(=O)N1C[C@H](O)C[C@H]1C(=O)NCc1ccc(-c2cncs2)cc1` [Example 117, (2S,4R)-1-[(2S)-2-(2-{4-[4-(4-{3-[4-cyano-3-(trifluoromethyl)phenyl]-5,5-dimethyl-4-oxo-2-sulfanylideneimidazolidin-1-yl}-3-fluorophenyl)phen-oxy]butoxy}acetamido)-3,3-dimethylbutanoyl]-4-hydroxy-N-{[4-(1,3-thiazol-5-yl)phenyl]methyl}pyrrolidine-2-carboxamide], for the setting “VCaP, read-out: VCaP Dmax (%)”, the Dmax was > 71%. Moreover, the half-maximal degradation concentration (DC50) under setting [1] is < 50 nM.
With `Cc1ncsc1-c1ccc(CNC(=O)[C@@H]2C[C@@H](O)CN2C(=O)[C@@H](NC(=O)COCCCCOc2ccc(-c3ccc(N4C(=S)N(c5ccc(C#N)c(C(F)(F)F)c5)C(=O)C4(C)C)c(F)c3)cc2)C(C)(C)C)cc1` [Example 118, (2S,4R)-1-[(2S)-2-(2-{4-[4-(4-{3-[4-cyano-3-(trifluoromethyl)phenyl]-5,5-dimethyl-4-oxo-2-sulfanylideneimidazolidin-1-yl}-3-fluorophenyl)phen-oxy]butoxy}acetamido)-3,3-dimethylbutanoyl]-4-hydroxy-N-{[4-(4-methyl-1,3-thiazol-5-yl)phenyl]methyl}pyrrolidine-2-carboxamide], the Dmax (VCaP, read-out: VCaP Dmax (%)) is > 71%. In addition, the DC50 under setting [1] is < 50 nM.
For the molecule `Cc1ncoc1-c1ccc(CNC(=O)[C@@H]2C[C@@H](O)CN2C(=O)[C@@H](NC(=O)COCCCCOc2ccc(-c3ccc(N4C(=S)N(c5ccc(C#N)c(C(F)(F)F)c5)C(=O)C45CCC5)cc3)cc2)C(C)(C)C)cc1` [Example 119, (2S,4R)-1-[(2S)-2-(2-{4-[4-(4-{7-[4-cyano-3-(trifluoromethyl)phenyl]-8-oxo-6-sulfanylidene-5,7-diazaspiro[3.4]octan-5-yl}phenyl)phenoxy]butoxy}acetamido)-3,3-dimethylbutanoyl]-4-hydroxy-N-{[4-(4-methyl-1,3-oxazol-5-yl)phenyl]methyl}pyrrolidine-2-carboxamide], the Dmax (VCaP, read-out: VCaP Dmax (%)) was 51 to 70%. Also, the DC50 under setting [1] was < 50 nM.
On to `Cc1ncsc1-c1ccc(CNC(=O)[C@@H]2C[C@@H](O)CN2C(=O)[C@@H](NC(=O)COCCCCOc2ccc(-c3ccc(N4C(=S)N(c5ccc(C#N)c(C(F)(F)F)c5)C(=O)C45CCC5)cc3)cc2)C(C)(C)C)cc1` [Example 120, (2S,4R)-1-[(2S)-2-(2-{4-[4-(4-{7-[4-cyano-3-(trifluoromethyl)phenyl]-8-oxo-6-sulfanylidene-5,7-diazaspiro[3.4]octan-5-yl}phenyl)phenoxy]butoxy}acetamido)-3,3-dimethylbutanoyl]-4-hydroxy-N-{[4-(4-methyl-1,3-thiazol-5-yl)phenyl]methyl}pyrrolidine-2-carboxamide], for which the Dmax (VCaP, read-out: VCaP Dmax (%)) was > 71%. In addition, under setting [1], the 50% degradation concentration (DC50) was < 50 nM.
The matching figures for `CC(C)(C)[C@H](NC(=O)COCCCCOc1ccc(-c2ccc(N3C(=S)N(c4ccc(C#N)c(Cl)c4)C(=O)C3(C)C)cc2)c(F)c1)C(=O)N1C[C@H](O)C[C@H]1C(=O)NCc1ccc(-c2cnco2)cc1` [Example 121, (2S,4R)-1-[(2S)-2-{2-[4-(4-{4-[3-(3-chloro-4-cyanophenyl)-5,5-dimethyl-4-oxo-2-sulfanylideneimidazolidin-1-yl]phenyl}-3-fluorophenoxy)butoxy]acetamido}-3,3-dimethylbutanoyl]-4-hydroxy-N-{[4-(1,3-oxazol-5-yl)phenyl]methyl}pyrrolidine-2-carboxamide]: > 71% and < 50 nM.
For `CC(C)(C)[C@H](NC(=O)COCCCCOc1ccc(-c2ccc(N3C(=S)N(c4ccc(C#N)c(C(F)(F)F)c4)C(=O)C3(C)C)cc2)cc1)C(=O)N1C[C@H](O)C[C@H]1C(=O)NCc1ccc(-c2ccn[nH]2)cc1` [Example 122, (2S,4R)-1-[(2S)-2-(2-{4-[4-(4-{3-[4-cyano-3-(trifluoromethyl)phenyl]-5,5-dimethyl-4-oxo-2-sulfanylideneimidazolidin-1-yl}phenyl)phenoxy]butoxy}acetamido)-3,3-dimethylbutanoyl]-4-hydroxy-N-{[4-(1H-pyrazol-5-yl)phenyl]methyl}pyrrolidine-2-carboxamide], the Dmax (VCaP, read-out: VCaP Dmax (%)) was > 71%. Also, the DC50 under setting [1] was < 50 nM.
